Patent publication US7431936B2, “Proteins involved in cytoadhesion of plasmodium falciparum ring-stage-infected erythrocytes, antibodies which bind to the proteins, and methods for detecting infection, stage of infection and vaccines for protecting against infection” (Institut Pasteur, priority 2000, dated 2008)

Assays:
[1] = tested on: ring-stage PA^CSA IE cytoadhesion to SBEC ID; assay: Protease sensitivity of ring-stage IE cytoadhesion; format: cell-based, P. falciparum; details: protease concentration of 100 μg/ml (FIG. 3C)
Experimental: The protease sensitivity of ring-stage IE cytoadhesion was analyzed using 5 μl of packed PA^CSA IE (8 hours post-invasion). IE were incubated with 10 or 100 μg/ml of trypsin TPCK (Signa) or 100 µg/ml of -chymotrypsin TLCK (Sigma) for 30 minutes at 37° C. The digestion was topped by adding culture medium containing 10% human plasma. The cells were then washed in cytoadhesion medium and allowed to cytoadhere to SBEC ID, as previously described, using untreated PA^CSA as a control.

[2] = tested on: ring-stage IE^CSA cytoadhesion to SBEC 1D; assay: Cytoadhesion inhibition assay of IE^CSA on SBEC 1D; format: cell-based, P. falciparum; details: for inhibitory effect on ring-stage IE binding to SBEC 1D: ring-stage PA^CSA IE 8 hours post-invasion, glycosaminoglycan present or target cells enzyme-treated (FIG. 2B), thrombospondin data not shown; for sensitivity of ring-stage IE^CSA cytoadhesion to inhibitor: 0.1 mg.ml of CSA, or prior treating of target cells with 1 U/ml Case ABC, until the 16th hour after invasion (FIG. 2A); for time after invasion at which inhibition was maximal: CSA and Case ABC tested every 4 hours throughout the cycle (FIG. 2A)
Experimental: Gelatin-enriched preparations of mature-stage IE were resuspended at a concentration of 5×10^6 IE/ml in cytoadhesion medium at pH 6.8. Cytoadhesion microassays were then performed on 12-well IFA slides (Institut Pasteur, Paris) as previously desribed^15.
Ring-stage cytoadhesion assays were performed with endothelial cells as described above and with placental cryosections as previously described^11, with 1 to 10% parasitaemia (a 1×10^7 IE/ml suspension).
For cytoadhesion inhibition assays, the IE were incubated with SBEC in the presence of 2.5 μg/ml thrombospondin, 0.1 mg/ml soluble CSA, dermatan sulphate (CSB), chondroitin-6-sulphate (CSC), keratin sulphate (Ker), byaluronic acid (HA), heparin (Hep) (Fluka, France), or with SBEC previously incubated for 1 hour at 37° C. with 1 U/ml Case (Fluka, France), 1 to 10 U/ml heparinase III (Hepase III (Sigma, France) or 5 μg/ml anti-CD36 FA6-152 Mab (gift from Dr. Edelman). Inhibition assays were also carried out in the presence of sera obtained from Senegalese and Cameroonian patients living in areas of endemic malaria. The sera were obtained from primigravida and multigravida women, an adult and a child, absorbed onto O^+ human blood and SBEC ID, and tested at a dilution of 1/20. The results were compared to those for cytoadhesion in the presence of a 1/20 dilution of a pool of control sera from volunteers who had never contacted malaria.

Molecule: -chymotrypsin
- inhibition of ring-stage IE adhesion after protease treatment of IE [1]: substantially inhibited

Molecule: Hyaluronic acid
- inhibitory effect on ring-stage IE binding to SBEC 1D [2]: no activity

Molecule: Thrombospondin: mature-stage IE adhesion receptor protein tested at 2.5 μg/ml
- inhibitory effect on ring-stage IE binding to SBEC 1D [2]: no effect

Molecule: chondroitin-sulphate A [CSA]
- sensitivity of ring-stage IE^CSA cytoadhesion to inhibitor [2]: insensitive
- time after invasion at which inhibition was maximal [2]: 24 h

Molecule: chondroitinase ABC [Case]
- sensitivity of ring-stage IE^CSA cytoadhesion to inhibitor [2]: insensitive
- time after invasion at which inhibition was maximal [2]: 24 h
- inhibitory effect on ring-stage IE binding to SBEC 1D [2]: no significant inhibitory activity

Molecule: dermatan-sulphate [CSB]
- inhibitory effect on ring-stage IE binding to SBEC 1D [2]: not specific

Molecule: heparin
- inhibition of ring-stage cytoadhesion ([2]; Heparin (100 m/ml) and heparinase, SBEC 1D (FIG. 2B)): about 50%

Molecule: hyaluronate lyase
- inhibitory effect on ring-stage IE binding to SBEC 1D [2]: low level of inhibitory activity

B1: trypsin: protease used to treat ring-stage IE (protein, UniProt P00760 24-246, looked up)
Serine protease 1: IVGGYTCGANTVPYQVSLNSGYHFCGGSLINSQWVVSAAHCYKSGIQVRLGEDNINVVEGNEQFISASKSIVHPSYNSNTLNNDIMLIKLKSAASLNSRVASISLPTSCASAGTQCLISGWGNTKSSGTSYPDVLKCLKAPILSDSSCKSAYPGQITSNMFCAGYLEGGKDSCQGDSGGPVVCSGKLQGIVSWGSGCAQKNKPGVYTKVCNYVSWIKQTIASN
modifications: TPCK-treated
notes: protease used to treat ring-stage IE
- inhibition of ring-stage IE adhesion after protease treatment of IE [1]: substantially inhibited
